Tests used:
COX-2 (human) = biological target: T1, COX-2 (human) (Homo sapiens, UniProt P35354); experiment: COX-2 (human) Inhibitor Screening Assay Kit, in vitro ELISA method; assay type: biochemical; settings: Cayman Chemical # 701080
T1 construct: purchased Cayman Chemical 701080
T1 sequence (P35354 18-604): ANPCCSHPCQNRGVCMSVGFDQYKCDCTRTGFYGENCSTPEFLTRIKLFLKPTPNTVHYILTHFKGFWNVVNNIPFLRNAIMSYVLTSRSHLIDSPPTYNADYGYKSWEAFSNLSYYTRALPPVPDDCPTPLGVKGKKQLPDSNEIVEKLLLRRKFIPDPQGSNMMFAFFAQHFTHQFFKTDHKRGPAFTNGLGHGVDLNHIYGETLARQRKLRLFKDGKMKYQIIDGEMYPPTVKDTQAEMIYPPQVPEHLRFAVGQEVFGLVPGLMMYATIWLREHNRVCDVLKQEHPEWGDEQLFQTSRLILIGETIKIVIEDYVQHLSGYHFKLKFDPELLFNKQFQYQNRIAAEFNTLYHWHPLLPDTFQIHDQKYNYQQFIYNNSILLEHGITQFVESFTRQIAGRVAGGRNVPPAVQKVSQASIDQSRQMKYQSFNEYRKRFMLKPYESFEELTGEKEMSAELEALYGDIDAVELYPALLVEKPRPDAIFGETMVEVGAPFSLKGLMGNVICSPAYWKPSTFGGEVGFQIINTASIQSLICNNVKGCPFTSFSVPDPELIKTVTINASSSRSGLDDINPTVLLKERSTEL
Source text: Measurement of the IC50 in an in vitro test (ELISA method - COX-2 (human) Inhibitor Screening Assay Kit, # 701080, Cayman Chemical) gave the following results.

[1] = tested on: human pulmonary epithelium BEAS-2B; experiment: MTT test for cytotoxicity; assay type: cell-based; settings: tested in the range 10 nM - 1 µM
Protocol: (§1) In a model of human pulmonary epithelium BEAS-2B (ATCC - CRL-9609), PC and PEA were tested in the range 10 nM - 1 µM.

[2] = tested on: human pulmonary epithelium cell line BEAS-2B; experiment: ROS measured as fluorescence emission of intracellular probe DCF-DA after LPS or Poly I:C stimulus; assay type: cell-based; settings: stimulus LPS or PIC, PC and PEA 1 µM for 48h, Figure 1
Protocol: (§2) The cells were treated with PC and PEA 1 µM for 48h. The ROS (which are powerful oxidants) were measured as fluorescence emission of the intracellular probe DCF-DA (dichlorofluorescein diacetate). The toxicity was measured as release of an intracellular enzyme (lactate dehydrogenase LDH) in the extracellular medium; the release is proportional to the toxicity and is measured with a spectrophotometer.

[3] = tested on: human pulmonary epithelium BEAS-2B; experiment: Cell proliferation by crystal violet colouring; assay type: cell-based; settings: tested in the range 10 nM - 1 µM
Protocol: as §1

[4] = tested on: interleukin 8 (IL-8) transcript; experiment: IL-8 transcript by real-time PCR after inflammatory stimulus; assay type: cell-based, human; settings: BEAS-2B, bacterial (LPS) or viral (PIC) stimulus, PC and PEA 1 µM for 24h, Figure 2
Protocol: The cells were treated with PC and PEA 1 µM for 24h. The interleukin 8 (IL-8) transcript was measured by means of real-time PCR.

[5] = tested on: transcripts for subunits 2 and 4 of complex IV of the mitochondrial respiratory chain (COX2 and COX4) and two subunits of the ATP synthase mitochondrial enzyme …; experiment: Mitochondrial respiratory chain and ATP synthase transcripts by real-time PCR; assay type: cell-based, human; settings: BEAS-2B, bacterial (LPS) or viral (PIC) stimulus, PC and PEA 1 µM for 24h, Figure 3
Protocol: The cells were treated with PC and PEA 1 µM for 24h. The transcripts for subunits 2 and 4 of complex IV of the mitochondrial respiratory chain (COX2 and COX4) and the transcripts for two subunits of the ATP synthase mitochondrial enzyme (ATP mit and ATP n) were measured by means of real-time PCR.

[6] = tested on: human pulmonary epithelium cell line BEAS-2B; experiment: Toxicity as lactate dehydrogenase (LDH) release after LPS or Poly I:C stimulus; assay type: cell-based; settings: stimulus LPS or PIC, PC and PEA 1 µM for 48h, Figure 1
Protocol: as §2

IC50 (COX-2 (human)): 575 nM
SMILES: CCCCCCCCCCCCCCCC(=O)NCCO [PEA, palmitoylethanolamide]
toxicity (MTT test) [1]: absence of toxicity | oxidative stress (ROS, DCF-DA fluorescence) [2]: protect from oxidative stress | effect on cell growth (proliferation, crystal violet) [3]: no effect on cell growth | production of inflammatory cytokines (IL-8 transcript) [4]: reduce the production of inflammatory cytokines | activation of the mitochondrial respiratory burst (COX2, COX4, ATP mit, ATP n transcripts) [5]: reduce activation of the mitochondrial respiratory burst | toxicity (LDH release in the extracellular medium) [6]: protect from oxidative stress and toxicity
